Patent US12209102B2, “Heterocyclic compounds and uses thereof” (Kumquat Biosciences Inc., priority 2022, dated 2025)

Tests used:
K-Ras G12D = molecular target: T1, K-Ras G12D (Homo sapiens, UniProt P01116, G12D); test: HTRF resonance energy transfer assay, K-Ras G12D / SOS1 interaction; assay type: biochemical; details: HTRF assay of Example 5; read-out: IC50 against K-Ras G12D
T1 construct: made in house; host or cells: E. coli BL21 (DE3)
Method in brief: (§1)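 Buffer about 5 mM HEPES pH 7.4 with ~150 mM NaCl, ~1 mM DTT, 0.05% BSA, 0.0025% (v/v) Igepal. Protein constructs used at molarity matching the IC50 range studied (e.g. ~500 nM). FRET between tagged K-Ras and hSOS1 measured after short incubation.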

K-Ras G12S = molecular target: T2, K-Ras G12S (Homo sapiens, UniProt P01116, G12S); test: HTRF resonance energy transfer assay, K-Ras G12S / SOS1 interaction; assay type: biochemical; details: HTRF assay of Example 5; read-out: IC50 against K-Ras G12S
T2 construct: made in house; host or cells: E. coli BL21 (DE3)
T2 sequence (P01116 1-188 isoform P01116-2 G12S): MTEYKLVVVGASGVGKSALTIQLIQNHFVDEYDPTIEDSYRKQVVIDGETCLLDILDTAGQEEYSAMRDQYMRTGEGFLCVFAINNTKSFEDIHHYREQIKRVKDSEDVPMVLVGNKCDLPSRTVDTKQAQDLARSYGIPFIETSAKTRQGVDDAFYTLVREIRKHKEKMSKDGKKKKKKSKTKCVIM
Method in brief: as §1

K-Ras G12V = molecular target: T3, K-Ras G12V (Homo sapiens, UniProt P01116, G12V); test: HTRF resonance energy transfer assay, K-Ras G12V / SOS1 interaction; assay type: biochemical; details: HTRF assay of Example 5; read-out: IC50 against K-Ras G12V
T3 construct: made in house; host or cells: E. coli BL21 (DE3)
T3 sequence (P01116 1-188 isoform P01116-2 G12V): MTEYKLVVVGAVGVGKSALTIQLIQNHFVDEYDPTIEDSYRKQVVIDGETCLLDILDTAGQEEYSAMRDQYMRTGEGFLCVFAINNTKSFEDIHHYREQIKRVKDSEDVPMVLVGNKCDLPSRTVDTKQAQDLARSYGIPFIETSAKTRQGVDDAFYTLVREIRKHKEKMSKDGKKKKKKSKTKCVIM
Method in brief: as §1

K-Ras WT = molecular target: T4, K-Ras WT (Homo sapiens, UniProt P01116); test: HTRF resonance energy transfer assay, K-Ras WT / SOS1 interaction; assay type: biochemical; details: HTRF assay of Example 5; read-out: IC50 against K-Ras WT
T4 construct: made in house; host or cells: E. coli BL21 (DE3)
T4 sequence (P01116 1-188 isoform P01116-2): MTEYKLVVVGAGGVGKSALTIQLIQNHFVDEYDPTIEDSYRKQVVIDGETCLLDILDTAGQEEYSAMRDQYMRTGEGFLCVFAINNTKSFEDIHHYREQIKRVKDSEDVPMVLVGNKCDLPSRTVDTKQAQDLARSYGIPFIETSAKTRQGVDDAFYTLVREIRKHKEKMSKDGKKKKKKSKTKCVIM
Method in brief: as §1

GP2D cells = test: Ras cellular assay, growth of cells with K-Ras G12D mutation (CellTiter-Glo); assay type: cell-based; details: cell growth, Example 9, G12D mutation, read-out: IC50 against GP2D cells
A549 cells = test: Ras cellular assay, growth of cells with K-Ras G12S mutation (CellTiter-Glo); assay type: cell-based; details: Homo sapiens, cell growth, Example 9, G12S mutation, read-out: IC50 against A549 cells
Method in brief: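 Growth inhibition IC50 values come from four-parameter fits of CellTiter-Glo luminescence, read about 6 days after compound addition. G12S-mutant A549 cells (e.g. 800/well, RPMI-1640 + 10% heat-inactivated FBS) were plated in tissue-culture-treated or ultra-low-attachment 384-well format. Dosing began the following day with serial dilutions, e.g. 10 points, 3-fold.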

SW620 cells = test: Ras cellular assay, growth of cells with K-Ras G12V mutation (CellTiter-Glo); assay type: cell-based; details: Homo sapiens, SW-620; cell growth, Example 9, G12V mutation; read-out: IC50 against SW620 cells
Method in brief: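 IC50 values came from a four-parameter fit of CellTiter-Glo viability, read roughly 6 days after dosing with e.g. a 10-point threefold dilution series. G12V-mutant SW620 cells (e.g. 800 per well) had been plated the previous day in RPMI-1640/10% heat-inactivated FBS, on tissue culture-treated or ultra-low attachment plates.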

T1 sequence (P01116 1-188 isoform P01116-2 G12D): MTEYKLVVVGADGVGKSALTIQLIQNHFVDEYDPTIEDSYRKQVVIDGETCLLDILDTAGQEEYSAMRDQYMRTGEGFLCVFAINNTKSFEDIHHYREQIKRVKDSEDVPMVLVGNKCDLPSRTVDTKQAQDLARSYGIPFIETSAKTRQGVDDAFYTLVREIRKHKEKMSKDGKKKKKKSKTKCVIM

SMILES | IC50 (K-Ras G12D) [nM] | IC50 (K-Ras G12S) [nM] | IC50 (K-Ras G12V) [nM] | IC50 (K-Ras WT) [nM] | IC50 (A549 cells) [µM] | IC50 (SW620 cells) [µM] | IC50 (GP2D cells) [nM]
COCC(=O)N1CCC(N2CCOc3c(Cl)c(-c4ccc(F)c5sc(N)c(C#N)c45)c(F)c4nc(OC[C@@]56CCCN5C[C@H](F)C6)nc2c34)C1 (stereo partly drawn) [Compound 1134, 2-amino-4-(8-chloro-10-fluoro-2-(((2R,7aS)-2-fluorotetrahydro-1H-pyrrolizin-7a(5H)-yl)methoxy)-4-(1-(2-methoxyacetyl)pyrrolidin-3-yl)-5,6-dihydro-4H-[1,4]oxazepino[5,6,7-de]quinazolin-9-yl)-7-fluorobenzo[b]thiophene-3-carbonitrile] | < 100 | < 100 | < 100 | < 100 | < 5 | < 5 | < 500
N#Cc1c(N)sc2c(F)ccc(-c3c(Cl)c4c5c(nc(OC[C@@]67CCCN6C[C@H](F)C7)nc5c3F)N(CCC(F)F)CCCO4)c12 [Compound 1212, 2-amino-4-(9-chloro-4-(3,3-difluoropropyl)-11-fluoro-2-(((2R,7aS)-2-fluorotetrahydro-1H-pyrrolizin-7a(5H)-yl)methoxy)-4,5,6,7-tetrahydro-[1,5]oxazocino[4,3,2-de]quinazolin-10-yl)-7-fluorobenzo[b]thiophene-3-carbonitrile] | < 100 | < 100 | < 100 | < 100 | < 5 | < 5 | < 500
N#Cc1c(N)sc2c(F)ccc(-c3c(Cl)c4c5c(nc(OC[C@@]67CCCN6C[C@H](F)C7)nc5c3F)N(C3CCOC3)CC(O)CO4)c12 (stereo partly drawn) [Compound 1225, 2-amino-4-(9-chloro-11-fluoro-2-(((2R,7aS)-2-fluorotetrahydro-1H-pyrrolizin-7a(5H)-yl)methoxy)-6-hydroxy-4-(tetrahydrofuran-3-yl)-4,5,6,7-tetrahydro-[1,5]oxazocino[4,3,2-de]quinazolin-10-yl)-7-fluorobenzo[b]thiophene-3-carbonitrile] | < 100 | < 100 | < 100 | < 100 | < 5 | < 5 | < 500

Continued, in another order:

IC50 (K-Ras G12D) [nM] | IC50 (K-Ras G12S) [nM] | IC50 (K-Ras G12V) [nM] | IC50 (K-Ras WT) [nM] | IC50 (A549 cells) [µM] | IC50 (SW620 cells) [µM] | SMILES | IC50 (GP2D cells) [nM]
< 100 | < 100 | < 100 | < 100 | < 5 | < 5 | C[C@@H]1CCOc2c(Cl)c(-c3ccc(F)c4sc(N)c(C#N)c34)c(F)c3nc(OC[C@@]45CCCN4C[C@H](F)C5)nc(c23)N1CC(F)F [Compound 1203, 2-amino-4-((R)-9-chloro-4-(2,2-difluoroethyl)-11-fluoro-2-(((2R,7aS)-2-fluorotetrahydro-1H-pyrrolizin-7a(5H)-yl)methoxy)-5-methyl-4,5,6,7-tetrahydro-[1,5]oxazocino[4,3,2-de]quinazolin-10-yl)-7-fluorobenzo[b]thiophene-3-carbonitrile] | < 500
< 100 | < 100 | < 100 | < 100 | < 5 | < 5 | N#Cc1c(N)sc2c(F)ccc(-c3c(Cl)c4c5c(nc(OC[C@@]67CCCN6C[C@H](F)C7)nc5c3F)N(CC(F)F)CCCO4)c12 [Compound 1218, 2-amino-4-(9-chloro-4-(2,2-difluoroethyl)-11-fluoro-2-(((2R,7aS)-2-fluorotetrahydro-1H-pyrrolizin-7a(5H)-yl)methoxy)-4,5,6,7-tetrahydro-[1,5]oxazocino[4,3,2-de]quinazolin-10-yl)-7-fluorobenzo[b]thiophene-3-carbonitrile] | < 500
